In patent publication US20080182851A1, “ACETYLENE DERIVATIVES AS STEAROYL COA DESATURASE INHIBITORS” (Glenmark Pharmaceuticals S.A., priority 2006, published 2008):

Molecular target: T1, human SCD1 enzyme (Homo sapiens, UniProt O00767)
T1 sequence (O00767 1-359): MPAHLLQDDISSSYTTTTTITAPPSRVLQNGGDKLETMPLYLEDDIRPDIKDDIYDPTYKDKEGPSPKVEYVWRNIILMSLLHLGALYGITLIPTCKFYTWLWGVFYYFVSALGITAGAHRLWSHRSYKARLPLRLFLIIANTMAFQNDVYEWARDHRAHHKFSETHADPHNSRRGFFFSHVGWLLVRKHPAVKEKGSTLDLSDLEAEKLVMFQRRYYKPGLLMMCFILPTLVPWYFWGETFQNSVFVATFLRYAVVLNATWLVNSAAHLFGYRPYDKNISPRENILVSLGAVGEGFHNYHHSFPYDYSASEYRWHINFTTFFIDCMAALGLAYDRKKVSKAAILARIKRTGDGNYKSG
Assay: Tritiated water release assay (conversion of radiolabeled stearoyl-CoA to oleoyl-CoA)
Type: biochemical
Conditions: 10 μM concentration of test compounds; microsomal SCD1, 3H stearoyl CoA, 37° C. 30 minutes; percent of control reaction; read-out: % Inhibition
Experimental: The in-vitro activity of the compounds of the present invention against stearoyl coenzyme desaturase was determined by following conversion of radiolabeled-stearoyl-CoA to oleoyl-CoA using human SCD1 enzyme using a previously published assay procedure with some modifications (Barbara R Talamo and Konrad Bloch, Analytical Biochemistry, 1969, 29, 300-304). This assay protocol is only illustrative and is not meant to limit to the scope of the present invention.
In this assay the microsomal SCD1 enzyme desaturates its substrate, Stearoyl CoA (purchased from American Radiochemicals Ltd.) which is tritiated at C9 and C10 positions. Test compounds were dissolved in dimethylsulfoxide and tested at 10 μM final concentration. Before substrate addition, the test compound or standard reference compound (conjugated linoleic acid at 100 μM final concentration) were pre-incubated in reaction buffer with the enzyme for 10 minutes at 30° C. with shaking. Reaction buffer was prepared as described in literature (Obukowicz et al. JPET, 1998, 287, 157-166) except that the MgCl2, ATP (purchased from Sigma) and CoA (purchased from Sigma) concentrations were changed to 4.9 mM, 7.2 mM and 0.54 mM respectively. The desaturation reaction was initiated by addition of 0.5 μCi of ^3H stearoyl CoA and incubated at 37° C. for 30 minutes with shaking. A control reaction was set without any test compound/reference inhibitor to capture maximum enzymatic activity in the assay. Inhibition of enzyme activity was calculated as a percent of this control reaction giving maximum catalysis and the results are given in Table 5.
Table 5: Tritiated water release assay at 10 μM substrate concentration *Conjugated Linoleic acid was used as a reference standard

| inhibition at 10 µM [%] | SMILES |
| --- | --- |
| 22 | O=C(c1ccccc1C(F)(F)F)N1CCN(c2ncc(C#Cc3ccc(N4CCCS4(=O)=O)cc3)cn2)CC1 [Example 51] |
| 95 | Oc1cccc(C#Cc2ccc(N3CCN(Cc4ccccc4F)CC3)nn2)c1 [Example 60, 3-({6-[4-(2-Fluorobenzyl)piperazin-1-yl]pyridazin-3-yl}ethynyl)phenol] |
| 33 | CCCCn1ccnc1C#Cc1ccc(N2CCN(C(=O)c3ccccc3C(F)(F)F)CC2)nc1 [Example 47, 4-{5-[2-(1-Butyl-1H-2-imidazolyl)-1-ethynyl]-2-pyridyl}piperazino-2-trifluoromethyl-phenylmethanone] |
| 66 | O=C(c1ccccc1C(F)(F)F)N1CCN(c2ncc(C#Cc3ccc4[nH]ccc4c3)cn2)CC1 [Example 50, 4-{5-[2-(1H-5-Indolyl)-1-ethynyl]-2-pyrimidinyl}piperazino-2-trifluoromethylphenyl-methanone] |
| 37 | CC(C)(C)c1ccc(OCC#Cc2ccc(N3CCN(C(=O)c4ccccc4C(F)(F)F)CC3)nc2)cc1 [Example 10] |
| 96 | CC(=O)Oc1ccc(C#Cc2ccc(N3CCC(Oc4ccccc4F)C3)nn2)cc1 (stereo in doubt) [Example 70, 4-[{6-[(3S)-3-(2-Fluorophenoxy)azolan-1-yl]pyridazin-3-yl}ethynyl]phenyl acetate] |
| 63 | O=C(c1ccccc1C(F)(F)F)N1CCN(c2ccc(C#CCOc3ccc(F)cc3)cn2)CC1 [Example 11, 4-[5-(3-(4-Fluorophenoxy)-1-propynyl)-2-pyridyl]piperazino-2-trifluoromethylphenyl-methanone] |
| 95 | Oc1ccc(C#Cc2ccc(N3CCC(Oc4ccc(Br)cc4F)CC3)nn2)cc1 [Example 81] |
| 63 | Oc1ccc(C#Cc2ccc(NCCOc3ccccc3F)nn2)cc1 [Example 100] |
| 44 | [O-][n+]1cccc(C#Cc2ccc(N3CCC(Oc4ccccc4F)CC3)nc2)c1 [Example 74] |
| 96 | Oc1ccc(C#Cc2ccc(N3CC(Oc4ccccc4F)C3)nn2)cc1 [Example 67] |
| 95 | Oc1ccc(C#Cc2ccc(N3CCC(Oc4ccccc4F)C3)nn2)cc1 (stereo in doubt) [Example 71, 4-[{6-[(3S)-3-(2-Fluorophenoxy)azolan-1-yl]pyridazin-3-yl}ethynyl]phenol] |
| 97 | CC(=O)Oc1cccc(C#Cc2ccc(N3CCC(Oc4ccccc4F)CC3)nn2)c1 [Example 85] |
| 98 | O=C(c1ccccc1C(F)(F)F)N1CCN(c2ncc(C#Cc3cccc(O)c3)cn2)CC1 [Example 43] |
| 89 | O=C(c1ccccc1C(F)(F)F)N1CCN(c2ccc(C#Cc3ccc(O)cc3)nn2)CC1 [Example 37] |
| 84 | CC(=O)Oc1ccc(C#Cc2ccc(N3CCN(C(=O)c4ccccc4C(F)(F)F)CC3)nc2)cc1 [Example 22] |
| 29 | CCOC(=O)c1cc(C#Cc2ccc(N3CCN(C(=O)c4ccccc4C(F)(F)F)CC3)nc2)ccc1OC(C)=O [Example 34] |
| 36 | Cc1cccc(C#Cc2cnc(N3CCC(Oc4ccccc4F)CC3)nc2)c1 [Example 97] |
| 26 | CC(C)(C)C#Cc1ccc(N2CCN(C(=O)c3ccccc3C(F)(F)F)CC2)nc1 [Example 18, 4-[5-(3,3-Dimethyl-1-butynyl)-2-pyridyl]piperazino-2-trifluoromethylphenylmethanone] |
| 30 | NC(=O)c1cccc(C#Cc2ccc(N3CCC(Oc4cccnc4)CC3)nn2)c1 [Example 96] |
| 27 | CC(C)(C)C(=O)Oc1cccc(C#Cc2ccc(N3CCC(Oc4ccccc4F)CC3)nn2)c1 [Example 87, 3-[{6-[4-(2-Fluorophenoxy)piperidin-1-yl]pyridazin-3-yl}ethynyl]phenyl pivalate] |
| 19 | O=C(c1ccccc1C(F)(F)F)N1CCN(c2ccc(C#CC3(O)CCCC3)cn2)CC1 [Example 5, 4-{5-[2-(1-Hydroxycyclopentyl)-1-ethynyl]-2-pyridyl}piperazino-2-trifluoromethyl phenylmethanone] |
